Where two headings read alike, the source gives them in different places. Starred links: 1 amine or outer side, 2 acyl side, 3 side chain; linkers in the order of their positions; H or OH if unused. Positions of bridges follow the written chain, without caps; N, C: chain ends. Non-standard residues stand in square brackets, D forms with d. Residues, ends and D or L forms follow the SMILES beside them. *: point of attachment. Orn(4R-OH,5R-OH) = O=C([C@H](C[C@@H](O)[C@@H](O)N[*:3])N[*:1])[*:2]; hTyr(3S-OH,4S-OH) = N[C@H](C(=O)O)[C@H](O)[C@@H](O)c1ccc(O)cc1; Benzoyl(4-dodecyloxy) = CCCCCCCCCCCCOc1ccc(C(=O)*)cc1; Benzoyl(4-OC10H21) = CCCCCCCCCCOc1ccc(C(=O)*)cc1; Pro(3S-OH,4S-Me) = C[C@H]1CN[C@H](C(=O)O)[C@H]1O; Benzoyl(4-octyloxy) = CCCCCCCCOc1ccc(C(=O)*)cc1; X20 = CCCCCCCCCCCCCCOc1ccc(C(=O)*)cc1; X1 = CCCCCCCCCCCCSc1ccc(C(=O)*)cc1; X11 = CCCCCCCCOc1ccc(OCC(=O)*)cc1; Hyp = O=C(O)[C@@H]1C[C@@H](O)CN1; X6 = CCCCCCCCCCSc1ccc(C(=O)*)cc1; X7 = CCCCCCCCSc1ccc(C(=O)*)cc1
Legend:
[1] = tested on: Trychophyton mentagrophyes #6; test: Agar plate disc diffusion test, MIC per disc; type: cell-based, Trichophyton mentagrophytes; conditions: 0.1M sodium borate, pH 7.5, 24 hours, 30° C., * measurable zones with regrowth of organism around disc
Experimental: (§1) Tables 10 and 11 give the results of the testing in vitro of the compounds of Examples 3 and 4 by agar-plate disc-diffusion methods. In Table 10 activity is measured by the size (diameter in mm) of the observed zone of inhibition of the microorganism produced by the test compound. In Table 11, activity is measured by the minimal inhibitory concentration (MIC) of the substance (μg/disc) required to inhibit growth of the test organism. Table 12 gives the results of the testing in vitro of the p-(n-octyloxy)benzoyl derivative of A30912A nucleus [Formula III, R^1 is p-(n-octyloxy)benzoyl] against five strains of Candida albicans by the agar dilution method. In Table 12 activity is measured by the minimal inhibitory concentration (MIC) of the substance (μg/ml) required to inhibit the test organism.
(§2) ^(a) Compounds were suspended in 0.1M sodium borate solution, pH 7.5.
(§3) The compounds were tested at 20 μg/disc at top level and at twofold
(§4) dilutions until end points were reached. Incubation: 24 hours; 30°
*Measurable zones of inhibition with regrowth of organism around disc.

[2] = tested on: Candida albicans A-26; test: Agar plate disc diffusion test, MIC per disc; type: cell-based; conditions: 0.1M sodium borate, pH 7.5, 24 hours, 30° C.
Experimental: as §1, §2, §3, §4

[3] = tested on: Candida albicans A-26; test: Therapeutic activity against Candida albicans A-26 infection in X-irradiated mice, lowest active dose; type: in vivo; conditions: A26, light or radiation study, sc
Experimental: (§5) The results of in vivo tests to evaluate the effectiveness of the compounds of Examples 3 and 4 against an infection caused by Candida albicans A-26 in mice are given in Table 13, where activity is measured by the ED50 value (the dose in mg/kg. required to cure 50% of the test animals). In a separate test, the results of which are also summarized in Table 13, activity is indicated by the lowest dose at which a significant anti-fungal effect is observed. In this test, groups of male albino mice (specific pathogen free), weighing 18 to 20 grams, are infected intravenously with Candida albicans A-26. The animals are X-irradiated 24 hours prior to infection at about 50 roentgens per minute for 8 minutes (400 total dose) to reduce immune responses to the infecting organism. At 0, 4, and 24 hours post infection each group of mice is given graded doses subcutaneously of the test compound as a suspension in 33% polyethylene glycol (PEG)-water. The day of death for each animal is recorded.
(§6) *Dosage Schedules: A. = 40, 20, 15 and 10 mg/kg; Dosages given 0, 4, and
(§7) 24 hours post injection as suspension of test compound in 30% PEGH2
(§8) O. Number of mice receiving test compounds at each dosage level: 6 mice
(§9) per group. Number of mice in control (untreated) group: 10 mice per group

[4] = tested on: Candida albicans A-26; test: Therapeutic activity against Candida albicans A-26 infection in mice, ED50; type: in vivo; conditions: doses 0, 4 and 24 hours post infection, increase in survival time vs control, Reed-Muench
Experimental: as §5, §6, §7, §8, §9
**As measured by increase in survival time of treated animals versus
control, calculated by method of Reed v Mueuch, American J. Hygiene, 27,

[5] = X-irradiated mice, subcutaneous at 0, 4 and 24 hours post infection, survival, read-out: Lowest Active Dose
[6] = read-out: Lowest Active Dose, X-irradiated mice, subcutaneous at 0, 4 and 24 hours post infection, survival
[7] = Candida albicans, A26, sc, read-out: ED50

Q: For `CCCCCCCCOc1ccc(OCC(=O)N[C@H]2C[C@@H](O)[C@@H](O)NC(=O)[C@@H]3[C@@H](O)[C@@H](C)CN3C(=O)[C@H]([C@@H](C)O)NC(=O)[C@H]([C@H](O)[C@@H](O)c3ccc(O)cc3)NC(=O)[C@@H]3C[C@@H](O)CN3C(=O)[C@H]([C@@H](C)O)NC2=O)cc1` [drawing 145] (X11-[Orn(4R-OH,5R-OH)]T[Hyp][hTyr(3S-OH,4S-OH)]T[Pro(3S-OH,4S-Me)]; lactam 1-C), which MIC [1] is on record?
A: 80 μg/disc

Q: And the MIC [2]?
A: 0.312 μg/disc

Q: What does the source list for `CCCCCCCCOc1ccc(C(=O)N[C@H]2C[C@@H](O)[C@@H](O)NC(=O)[C@@H]3[C@@H](O)[C@@H](C)CN3C(=O)[C@H]([C@@H](C)O)NC(=O)[C@H]([C@H](O)[C@@H](O)c3ccc(O)cc3)NC(=O)[C@@H]3C[C@@H](O)CN3C(=O)[C@H]([C@@H](C)O)NC2=O)cc1` [drawing 151] ({Benzoyl(4-octyloxy)}-[Orn(4R-OH,5R-OH)]T[Hyp][hTyr(3S-OH,4S-OH)]T[Pro(3S-OH,4S-Me)]; lactam 1-C)?
A: minimal effective dose [3, 5]: < 12.5 mg/kg; minimal effective dose [3, 6]: 10 mg/kg

Q: Which minimal effective dose [3, 6] does the source give for `CCCCCCCCCCOc1ccc(C(=O)N[C@H]2C[C@@H](O)[C@@H](O)NC(=O)[C@@H]3[C@@H](O)[C@@H](C)CN3C(=O)[C@H]([C@@H](C)O)NC(=O)[C@H]([C@H](O)[C@@H](O)c3ccc(O)cc3)NC(=O)[C@@H]3C[C@@H](O)CN3C(=O)[C@H]([C@@H](C)O)NC2=O)cc1` [drawing 152] ({Benzoyl(4-OC10H21)}-[Orn(4R-OH,5R-OH)]T[Hyp][hTyr(3S-OH,4S-OH)]T[Pro(3S-OH,4S-Me)]; lactam 1-C) here?
A: 5 mg/kg

Q: What about the ED50 [4, 7] of the same compound?
A: 8 mg/kg

Q: How did the minimal effective dose [3, 5] turn out when `CCCCCCCCCCCCOc1ccc(C(=O)N[C@H]2C[C@@H](O)[C@@H](O)NC(=O)[C@@H]3[C@@H](O)[C@@H](C)CN3C(=O)[C@H]([C@@H](C)O)NC(=O)[C@H]([C@H](O)[C@@H](O)c3ccc(O)cc3)NC(=O)[C@@H]3C[C@@H](O)CN3C(=O)[C@H]([C@@H](C)O)NC2=O)cc1` [drawing 153] ({Benzoyl(4-dodecyloxy)}-[Orn(4R-OH,5R-OH)]T[Hyp][hTyr(3S-OH,4S-OH)]T[Pro(3S-OH,4S-Me)]; lactam 1-C) was run?
A: 2.5 mg/kg

Q: What about the minimal effective dose [3, 6] of the same compound?
A: ≤ 5 mg/kg

Q: What about the ED50 [4, 7] of the same compound?
A: < 5 mg/kg

Q: What about the ED50 [4] of the same compound?
A: 3.9 mg/kg

Q: `CCCCCCCCCCCCCCOc1ccc(C(=O)N[C@H]2C[C@@H](O)[C@@H](O)NC(=O)[C@@H]3[C@@H](O)[C@@H](C)CN3C(=O)[C@H]([C@@H](C)O)NC(=O)[C@H]([C@H](O)[C@@H](O)c3ccc(O)cc3)NC(=O)[C@@H]3C[C@@H](O)CN3C(=O)[C@H]([C@@H](C)O)NC2=O)cc1` [drawing 154] (X20-[Orn(4R-OH,5R-OH)]T[Hyp][hTyr(3S-OH,4S-OH)]T[Pro(3S-OH,4S-Me)]; lactam 1-C) was tested. Which minimal effective dose [3, 6] did it give?
A: 5 mg/kg

Q: And the ED50 [4, 7]?
A: 3 mg/kg

Q: `CCCCCCCCSc1ccc(C(=O)N[C@H]2C[C@@H](O)[C@@H](O)NC(=O)[C@@H]3[C@@H](O)[C@@H](C)CN3C(=O)[C@H]([C@@H](C)O)NC(=O)[C@H]([C@H](O)[C@@H](O)c3ccc(O)cc3)NC(=O)[C@@H]3C[C@@H](O)CN3C(=O)[C@H]([C@@H](C)O)NC2=O)cc1` [drawing 155] (X7-[Orn(4R-OH,5R-OH)]T[Hyp][hTyr(3S-OH,4S-OH)]T[Pro(3S-OH,4S-Me)]; lactam 1-C) was tested. Which minimal effective dose [3, 6] did it give?
A: 10 mg/kg

Q: What about the ED50 [4, 7] of the same compound?
A: 37.4 mg/kg

Q: Which results are given for `CCCCCCCCCCSc1ccc(C(=O)N[C@H]2C[C@@H](O)[C@@H](O)NC(=O)[C@@H]3[C@@H](O)[C@@H](C)CN3C(=O)[C@H]([C@@H](C)O)NC(=O)[C@H]([C@H](O)[C@@H](O)c3ccc(O)cc3)NC(=O)[C@@H]3C[C@@H](O)CN3C(=O)[C@H]([C@@H](C)O)NC2=O)cc1` [drawing 156] (X6-[Orn(4R-OH,5R-OH)]T[Hyp][hTyr(3S-OH,4S-OH)]T[Pro(3S-OH,4S-Me)]; lactam 1-C)?
A: minimal effective dose [3, 5]: 20 mg/kg; ED50 [4, 7]: 28 mg/kg

Q: What does the source list for `CCCCCCCCCCCCSc1ccc(C(=O)N[C@H]2C[C@@H](O)[C@@H](O)NC(=O)[C@@H]3[C@@H](O)[C@@H](C)CN3C(=O)[C@H]([C@@H](C)O)NC(=O)[C@H]([C@H](O)[C@@H](O)c3ccc(O)cc3)NC(=O)[C@@H]3C[C@@H](O)CN3C(=O)[C@H]([C@@H](C)O)NC2=O)cc1` [drawing 157] (X1-[Orn(4R-OH,5R-OH)]T[Hyp][hTyr(3S-OH,4S-OH)]T[Pro(3S-OH,4S-Me)]; lactam 1-C)?
A: minimal effective dose [3, 5]: < 1.25 mg/kg; ED50 [4, 7]: 2 mg/kg
